Data: patent US20110201642A1, “Bioactive Compounds” (priority 2008, published 2011)
Where two headings read alike, the source gives them in different places.

What was measured:
Type in all cases: cell-based
[1] = tested on: HCT116 (ATCC CCL-247) human colon cancer cell line; assay: MTT cytotoxic assay against HCT116 (96 h)
Protocol: (§1) Human breast cancer, MCF7 (ATCC HTB-22) and human colon cancer, HCT116 (ATCC CCL-247) cell lines were all maintained in RPMI 1640 (Sigma), supplemented with 10% Foetal Bovine Serum (FBS, PAA Laboratories). Cells of 80-85% confluence were harvested and plated onto 96-flat bottom well plates for experimental use. In all experiments, cells were incubated in a CO2 incubator at 37° C. with 5% CO2 overnight prior to treatment.
(§2) Compounds were tested against MCF7 and HCT116 and incubated for 96 h before cytotoxic assay using the MTT (3-(4,5-dimethylthiazole-2-yl)-2,5-diphenyltetrazolium bromide) assay according to Mosmann (J. Immunol Meth. 65 (1983) 55-63). Plates were read using an Elisa plate reader at 520 nm. Data generated was used to plot a dose response curve. Cytotoxic activity was expressed as the mean concentration of extract required to kill 50% of the cell population (IC50).

[2] = tested on: P388 murine leukemia cell line; assay: Cytotoxicity against P388 murine leukemia cell line; settings: for IC50: Mus musculus, P388 murine leukemia
Protocol: The Compounds A1-A5 were assayed against three cell lines: murine leukemia, P388; human breast cancer, MCF7 (ATCC HTB-22); and human colon cancer, HCT116 (ATCC CCL-247).

[3] = tested on: MCF7 (ATCC HTB-22) human breast cancer cell line; assay: MTT cytotoxic assay against MCF7 (96 h); settings: for IC50: Homo sapiens, MCF7, 96 h
Protocol: as §1, §2

[4] = Homo sapiens, HCT-116, 96 h, read-out: IC50 (nM) HCT116
[5] = Homo sapiens, HCT-116, 96 h, read-out: IC50 (ng/mL) HCT116

SMILES	IC50 ([1]; HCT-116, HCT116 human colon cancer, MTT, 96 h, read-out: IC50 (ng/mL) HCT116)	IC50 ([2]; read-out: IC50 (nM) P388)	IC50 ([2]; read-out: IC50 (ng/mL) P388)	IC50 ([3]; read-out: IC50 (nM) MCF7)	IC50 ([3]; read-out: IC50 (ng/mL) MCF7)	IC50 [1, 4]	IC50 [1, 5]	factor between the least active, Compound A2, and the most active, Compound A5 ([2]; P388 data)	IC50 (ng/mL) MCF7 ([3]; MCF7 human breast cancer, MTT, 96 h)	IC50 (ng/mL) HCT116 ([1]; HCT116 human colon cancer, MTT, 96 h)
O=c1[nH]cc(F)c(=O)[nH]1 [5-fluorouracil, reference compound]	910 ng/mL									
C=CC(C)CC1NC(=O)C(C(O)C(C)C)N(C)C(=O)C(C)N(C)C(=O)C(C(C)C)NC(=O)C(C(O)C(C)C)NC(=O)C2CCCCN2C(=O)C(C)N(C)C1=O (stereo not shown) [Compound A1]		3.8 nM	3 ng/mL	8.1 nM	6.5 ng/mL	5.9 nM	4.7 ng/mL			
CCC(C)C1NC(=O)C(C(O)C(C)C)NC(=O)C2CCCCN2C(=O)C(C)N(C)C(=O)C(CC(C)C)NC(=O)C(C(O)C(C)C)N(C)C(=O)C(C)N(C)C1=O (stereo not shown) [Compound A2]		56 nM	45 ng/mL	8.3 nM	6.6 ng/mL	11.6 nM	9.3 ng/mL			
C=CC(C)CC1NC(=O)C(C(O)C(C)C)N(C)C(=O)C(C)N(C)C(=O)C(C(C)CC)NC(=O)C(C(O)C(C)C)NC(=O)C2CCCCN2C(=O)C(C)N(C)C1=O (stereo not shown) [Compound A3]		1.3 nM	1 ng/mL	0.9 nM	0.73 ng/mL	0.3 nM	0.2 ng/mL			
CCC(C)CC1NC(=O)C(C(O)C(C)C)N(C)C(=O)C(C)N(C)C(=O)C(C(C)CC)NC(=O)C(C(O)C(C)C)NC(=O)C2CCCCN2C(=O)C(C)N(C)C1=O (stereo not shown) [Compound A4]		24 nM	19 ng/mL	7.1 nM	5.7 ng/mL	3.9 nM	3.1 ng/mL			
C=CC(C)CC1NC(=O)C(C(O)C(C)CC)N(C)C(=O)C(C)N(C)C(=O)C(C(C)CC)NC(=O)C(C(O)C(C)C)NC(=O)C2CCCCN2C(=O)C(C)N(C)C1=O (stereo not shown) [Compound A5]		0.13 nM	0.1 ng/mL	1 nM	0.8 ng/mL	0.3 nM	0.2 ng/mL	~450		
N.N.[Cl][Pt][Cl] [cisplatin, reference compound]									8705 ng/mL	1650 ng/mL
